Measurements published in patent US9562031B1, “Phenethyldihydrobenzodioxolones and methods of use” (Sequoia Sciences, Inc., priority 2015, dated 2017).
Read-outs that look alike come from different tables or passages of the source. Values belong to the compound of their own block, whether it stands above or below them.

Columns and labels:
[1] = test system: NCI-H460 (large cell lung carcinoma) cells; test: antiproliferation assay (72 h, CELLTITER 96), NCI-H460; assay type: cell-based, human; conditions: read-out: NCI-H460 IC50
Outline: (§1)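 Human M14 melanoma and NCI-H460 lung carcinoma cells in RPMI-1640/10% FBS, seeded at 5×10^2–5×10^4 cells/well and adhered overnight, then exposed to seven compound concentrations for 72 h at 37 °C. Viable cells read by CellTiter 96 AQueous (MTS); IC50 = concentration giving 50% of maximal growth inhibition.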

[2] = test system: M14 (amelanotic melanoma) cells; test: antiproliferation assay (72 h, CELLTITER 96), M14; assay type: cell-based, human
Outline: as §1

[3] = Homo sapiens, NCI-H460, Table 7
[4] = Homo sapiens, NCI-H460, Table 8
[5] = Homo sapiens, NCI-H460, Table 3
[6] = Homo sapiens, NCI-H460, Table 4
[7] = Homo sapiens, NCI-H460, Table 5

SMILES: COCC[C@H]1C[C@]2([C@@H](C)Cc3cc(O)c(OC)cc3F)OCOC2=CC1=O [Compound 78, (6S,7aR)-7a-((S)-1-(2-fluoro-5-hydroxy-4-methoxyphenyl)propan-2-yl)-6-(2-methoxyethyl)-7,7a-dihydrobenzo[d][1,3]dioxol-5(6H)-one]
IC50 [1, 3]: 0.27 µM
IC50 ([2]; Homo sapiens, Table 7): 0.19 µM

SMILES: C=C(C)C[C@H]1C[C@]2([C@@H](C)Cc3cc(O)c(OC)cc3F)OCOC2=CC1=O [Compound 80, (6S,7aR)-7a-((S)-1-(2-fluoro-5-hydroxy-4-methoxyphenyl)propan-2-yl)-6-(2-methylallyl)-7,7a-dihydrobenzo[d][1,3]dioxol-5(6H)-one]
IC50 [1, 3]: 0.37 µM
IC50 ([2]; Homo sapiens, Table 7): 0.22 µM

SMILES: C=CC[C@H]1C[C@]2([C@@H](C)Cc3ccc4c(c3)OCO4)OCOC2=CC1=O [Compound 83, (6S,7aR)-6-allyl-7a-((S)-1-(benzo[d][1,3]dioxol-5-yl)propan-2-yl)-7,7a-dihydrobenzo[d][1,3]dioxol-5(6H)-one]
IC50 [1, 4]: 0.39 µM
IC50 ([2]; Homo sapiens, Table 8): 0.65 µM

SMILES: C=CC[C@H]1C[C@]2([C@H](C)Cc3ccc(OC)c4occc34)OCOC2=CC1=O [Compound 84, (6S,7aR)-6-allyl-7a-((R)-1-(7-methoxybenzofuran-4-yl)propan-2-yl)-7,7a-dihydrobenzo[d][1,3]dioxol-5(6H)-one]
IC50 [1, 4]: 2.6 µM
IC50 ([2]; Homo sapiens, Table 8): > 20 µM

SMILES: C=CC[C@H]1C[C@]2([C@@H](C)Cc3ccc(OC)nc3)OCOC2=CC1=O [Compound 86, (6S,7aR)-6-allyl-7a-((S)-1-(6-methoxypyridin-3-yl)propan-2-yl)-7,7a-dihydrobenzo[d][1,3]dioxol-5(6H)-one]
IC50 [1, 4]: 0.33 µM
IC50 ([2]; Homo sapiens, Table 8): 0.18 µM

SMILES: C=CC[C@H]1C[C@]2(C(C)Cc3ccc(OC)c(OC)c3)OCOC2=C(C)C1=O (stereo partly drawn) [Compound 88, (6S,7aR)-6-allyl-7a-(1-(3,4-dimethoxyphenyl)propan-2-yl)-4-methyl-7,7a-dihydrobenzo[d][1,3]dioxol-5(6H)-one]
IC50 [1, 4]: 4.6 µM
IC50 ([2]; Homo sapiens, Table 8): 4.2 µM

SMILES: C=CC[C@H]1C[C@]2([C@H](C)Cc3cc(F)c(OC)cc3F)O[C@H](C)OC2=CC1=O [Compound 89, (2R,6S,7aR)-6-allyl-7a-((R)-1-(2,5-difluoro-4-methoxyphenyl)propan-2-yl)-2-methyl-7,7a-dihydrobenzo[d][1,3]dioxol-5(6H)-one]
IC50 [1, 4]: 6.9 µM
IC50 ([2]; Homo sapiens, Table 8): > 20 µM

SMILES: COc1ccc(C[C@H](C)[C@]23C[C@H](CC=C(C)C)C(=O)C=C2OCO3)cc1OC [Compound 90]
IC50 [1, 3]: 8 µM
IC50 ([2]; Homo sapiens, Table 7): 7 µM

SMILES: C=CC[C@H]1C[C@]2(C(C)Cc3cc(C(=O)O)c(OC)cc3F)OCOC2=CC1=O (stereo partly drawn) [Compound 92, 5-(2-((3aR,5S)-5-allyl-6-oxo-3a,4,5,6-tetrahydrobenzo[d][1,3]dioxol-3a-yl)propyl)-4-fluoro-2-methoxybenzoic acid]
IC50 [1, 5]: > 20 µM
IC50 ([2]; Homo sapiens, Table 3): > 20 µM

SMILES: C=CC[C@H]1C[C@]2([C@@H](C)Cc3cc(C(=O)N(C)C)c(OC)cc3F)OCOC2=CC1=O [Compound 94, 5-((S)-2-((3aR,5S)-5-allyl-6-oxo-3a,4,5,6-tetrahydrobenzo[d][1,3]dioxol-3a-yl)propyl)-4-fluoro-2-methoxy-N,N-dimethylbenzamide]
IC50 [1, 5]: > 20 µM
IC50 ([2]; Homo sapiens, Table 3): > 20 µM

SMILES: C=CC[C@H]1C[C@]2([C@@H](C)Cc3cc(-c4nnn[nH]4)c(OC)cc3F)OCOC2=CC1=O [Compound 95, (6S,7aR)-6-allyl-7a-((S)-1-(2-fluoro-4-methoxy-5-(1H-tetrazol-5-yl)phenyl)propan-2-yl)-7,7a-dihydrobenzo[d][1,3]dioxol-5(6H)-one]
IC50 [1, 5]: > 20 µM
IC50 ([2]; Homo sapiens, Table 3): > 20 µM

SMILES: C=CC[C@H]1C[C@]2([C@@H](C)Cc3ccc(O)cc3)OCOC2=CC1=O [Compound 99, (6S,7aR)-6-allyl-7a-((S)-1-(4-hydroxyphenyl)propan-2-yl)-7,7a-dihydrobenzo[d][1,3]dioxol-5(6H)-one]
IC50 [1, 7]: > 20 µM
IC50 ([2]; Homo sapiens, Table 5): > 20 µM

SMILES: C=CC[C@H]1C[C@]2([C@H](C)Cc3ccc(OCCOC)c(F)c3)OCOC2=CC1=O [Compound 101, (6S,7aR)-6-allyl-7a-((R)-1-(3-fluoro-4-(2-methoxyethoxy)phenyl)propan-2-yl)-7,7a-dihydrobenzo[d][1,3]dioxol-5(6H)-one]
IC50 [1, 7]: > 20 µM
IC50 ([2]; Homo sapiens, Table 5): > 20 µM

SMILES: C=CC[C@H]1C[C@]2([C@@H](C)Cc3ccc(NC(C)=O)c(F)c3)OCOC2=CC1=O [Compound 102, N-(4-((S)-2-((3aR,55)-5-allyl-6-oxo-3a,4,5,6-tetrahydrobenzo[d][1,3]dioxol-3a-yl)propyl)-2-fluorophenyl)acetamide]
IC50 ([1]; Table 5): > 20 µM
IC50 ([2]; Table 5): > 20 µM

SMILES: COc1cc(F)c(C[C@H](C)[C@]23CCC(=O)C=C2OCO3)cc1O [Compound 104, (R)-7a-((S)-1-(2-fluoro-5-hydroxy-4-methoxyphenyl)propan-2-yl)-7,7a-dihydrobenzo[d][1,3]dioxol-5(6H)-one]
IC50 [1, 3]: > 20 µM
IC50 ([2]; Homo sapiens, Table 7): > 20 µM

SMILES: COc1ccc(CC(C)[C@]23C[C@H](CCCF)C(=O)C=C2OCO3)cc1OC (stereo partly drawn) [Compound 107, (6S,7aR)-7a-(1-(3,4-dimethoxyphenyl)propan-2-yl)-6-(3-fluoropropyl)-7,7a-dihydrobenzo[d][1,3]dioxol-5(6H)-one]
IC50 [1, 3]: > 20 µM
IC50 ([2]; Homo sapiens, Table 7): > 20 µM

SMILES: C=C[C@H](C)[C@H]1C[C@]2([C@@H](C)Cc3ccc(OC)cc3F)OCOC2=CC1=O [Compound 110, (6R,7aR)-6-((S)-but-3-en-2-yl)-7a-((S)-1-(2-fluoro-4-methoxyphenyl)propan-2-yl)-7,7a-dihydrobenzo[d][1,3]dioxol-5(6H)-one]
IC50 [1, 3]: 0.13 µM
IC50 ([2]; Homo sapiens, Table 7): 0.29 µM

SMILES: COc1cc(F)c(C[C@H](C)[C@]23C[C@H](CC(C)=O)C(=O)C=C2OCO3)cc1O [Compound 111, (6R,7aR)-7a-((S)-1-(2-fluoro-5-hydroxy-4-methoxyphenyl)propan-2-yl)-6-(2-oxopropyl)-7,7a-dihydrobenzo[d][1,3]dioxol-5(6H)-one]
IC50 [1, 3]: 15 µM
IC50 ([2]; Homo sapiens, Table 7): 7 µM

Other lines, results leading:

IC50 [1, 3]: 2.5 µM
IC50 ([2]; Homo sapiens, Table 7): 1.3 µM
SMILES: C=C(Cl)C[C@H]1C[C@]2([C@@H](C)Cc3ccc(OC)cc3F)OCOC2=CC1=O [Compound 79, (6R,7aR)-6-(2-chloroallyl)-7a-((S)-1-(2-fluoro-4-methoxyphenyl)propan-2-yl)-7,7a-dihydrobenzo[d][1,3]dioxol-5(6H)-one]

IC50 [1, 4]: 5.2 µM
IC50 ([2]; Homo sapiens, Table 8): > 20 µM
SMILES: C=CC[C@H]1C[C@]2([C@@H](C)Cc3cc(F)c(OC)cc3F)O[C@H](C)OC2=CC1=O [Compound 82, (2R,6S,7aR)-6-allyl-7a-((S)-1-(2,5-difluoro-4-methoxyphenyl)propan-2-yl)-2-methyl-7,7a-dihydrobenzo[d][1,3]dioxol-5(6H)-one]

IC50 [1, 4]: 0.73 µM
IC50 ([2]; Homo sapiens, Table 8): 0.63 µM
SMILES: C=CC[C@H]1C[C@]2([C@@H](C)Cc3ccc(OC)c4occc34)OCOC2=CC1=O [Compound 85, (6S,7aR)-6-allyl-7a-((S)-1-(7-methoxybenzofuran-4-yl)propan-2-yl)-7,7a-dihydrobenzo[d][1,3]dioxol-5(6H)-one]

IC50 [1, 4]: 11 µM
IC50 ([2]; Homo sapiens, Table 8): 2.6 µM
SMILES: C=CC[C@H]1C[C@]2([C@@H](CC)Cc3ccc(OC)c(OC)c3)OCOC2=CC1=O [Compound 87, (6S,7aR)-6-allyl-7a-(1-(3,4-dimethoxyphenyl)butan-2-yl)-7,7a-dihydrobenzo[d][1,3]dioxol-5(6H)-one]

IC50 [1, 5]: > 20 µM
IC50 ([2]; Homo sapiens, Table 3): > 20 µM
SMILES: C=CC[C@H]1C[C@]2([C@@H](C)Cc3cc(-c4ccccc4)c(OC)cc3F)OCOC2=CC1=O [Compound 91, (6S,7aR)-6-allyl-7a-((S)-1-(4-fluoro-6-methoxy-[1,1′-biphenyl]-3-yl)propan-2-yl)-7,7a-dihydrobenzo[d][1,3]dioxol-5(6H)-one]

IC50 [1, 5]: > 20 µM
IC50 ([2]; Homo sapiens, Table 3): > 20 µM
SMILES: C=CC[C@H]1C[C@]2([C@H](C)Cc3cc(C(=O)N(C)C)c(OC)cc3F)OCOC2=CC1=O [Compound 93, 5-((R)-2-((3aR,5S)-5-allyl-6-oxo-3a,4,5,6-tetrahydrobenzo[d][1,3]dioxol-3a-yl)propyl)-4-fluoro-2-methoxy-N,N-dimethylbenzamide]

IC50 [1, 6]: > 20 µM
IC50 ([2]; Homo sapiens, Table 4): > 20 µM
SMILES: C=CCC1C[C@]2([C@@H](C)Cc3ccc(OC)c(C(C)=O)c3)OCOC2=CC1=O (stereo partly drawn) [Compound 96, (7aR)-7a-((S)-1-(3-acetyl-4-methoxyphenyl)propan-2-yl)-6-allyl-7,7a-dihydrobenzo[d][1,3]dioxol-5(6H)-one]

IC50 [1, 6]: > 20 µM
IC50 ([2]; Homo sapiens, Table 4): > 20 µM
SMILES: C=CC[C@H]1C[C@]2([C@H](C)Cc3ccc(OC)c(N(C)C)c3)OCOC2=CC1=O [Compound 97, (6S,7aR)-6-allyl-7a-((R)-1-(3-(dimethylamino)-4-methoxyphenyl)propan-2-yl)-7,7a-dihydrobenzo[d][1,3]dioxol-5(6H)-one]

IC50 [1, 7]: > 20 µM
IC50 ([2]; Homo sapiens, Table 5): > 20 µM
SMILES: C=CC[C@H]1C[C@]2([C@@H](C)Cc3ccc(OC(C)=O)cc3)OCOC2=CC1=O [Compound 100, 4-((S)-2-((3aR,5S)-5-allyl-6-oxo-3a,4,5,6-tetrahydrobenzo[d]dioxol-3a-yl)propyl)phenyl acetate]

IC50 [1, 7]: > 20 µM
IC50 ([2]; Homo sapiens, Table 5): > 20 µM
SMILES: C=CC[C@H]1C[C@]2([C@@H](C)Cc3ccc(N(C)C(C)=O)cc3)OCOC2=CC1=O [Compound 103, N-(4-((S)-2-((3aR,5S)-5-allyl-6-oxo-3a,4,5,6-tetrahydrobenzo[d][1,3]dioxol-3a-yl)propyl)phenyl)-N-methylacetamide]

IC50 [1, 3]: > 20 µM
IC50 ([2]; Homo sapiens, Table 7): > 20 µM
SMILES: COc1ccc(CC(C)[C@]23CC(CC(C)=O)C(=O)C=C2OCO3)cc1OC (stereo partly drawn) [Compound 106]

IC50 [1, 3]: 1.5 µM
IC50 ([2]; Homo sapiens, Table 7): 0.65 µM
SMILES: COc1cc(F)c(C[C@H](C)[C@]23C[C@H](CC(C)O)C(=O)C=C2OCO3)cc1O (stereo partly drawn) [Compound 109, (6S,7aR)-7a-((S)-1-(2-fluoro-5-hydroxy-4-methoxyphenyl)propan-2-yl)-6-(2-hydroxypropyl)-7,7a-dihydrobenzo[d][1,3]dioxol-5(6H)-one]
